Assay results: US6361815B1, “Products comprising trihydroxystilbenes and derivatives thereof and methods for their manufacture and use” (Pure World Botanicals, Inc., priority 1998, dated 2002)
Counter-ions that a name gives are not always drawn.

How the values were obtained:
PACA-2 = assay: MTT assay, 6-cell line test, pancreatic PACA-2; assay type: cell-based, human; settings: PACA-2 cells
Procedure: (§1) Cells were planted in 96 well flat bottom plates with low evaporation lids. Three cell lines per plate were seeded in 0.2 ml medium per well. Each cell line was planted at the optimum concentration for its particular growth rate: H-29 and A-549, 5000 c/ml, MCF-7, 15000 c/well, KB and similar cells, 2500 c/ml, P388 and similar cells, 15000 c/ml. Products were tested at various dilutions (at least ten) to determine the ED 50.

A-478 = assay: MTT assay, 6-cell line test, kidney A-478; assay type: cell-based, human; settings: A-478 cells
Procedure: as §1

MCF-7 = assay: MTT assay, 6-cell line test, breast MCF-7; assay type: cell-based, human; settings: MCF-7 cells
Procedure: as §1

A-549 = assay: MTT assay, 6-cell line test, lung A-549; assay type: cell-based, human; settings: A-549 cells
Procedure: as §1

HT-29 = assay: MTT assay, 6-cell line test, colon HT-29; assay type: cell-based, human; settings: HT-29 cells
Procedure: as §1

PC-3 = assay: MTT assay, 6-cell line test, prostate PC-3; assay type: cell-based, human; settings: PC-3 cells
Procedure: as §1

[1] = tested on: carrageenan-induced pedal edema; settings: rats, cited from earlier work
[2] = tested on: DMBA-induced mammary tumors; assay: DMBA-induced mammary carcinogenesis in rats; assay type: in vivo, Female Sprague-Dawley rats; settings: for Rat with Tumors, percentage in parentheses (reduction versus Control Diet + DMBA, not explained) / Tumors Per Rat, percentage in parentheses (reduction versus Control Diet + DMBA, not explained): Sulforaphane 50 mg/kg by gavage + DMBA; for Rat with Tumors (%) / Tumors Per Rat: Sulforaphane 50 mg/kg by gavage once a day, days 46-51 of age, + DMBA
Procedure: Sulforaphane was orally administered by gavage (50 mg / kg body weight in 0.1 ml corn oil) to rats once a day at 46th, 47th, 48th, 49th, 50th and 51st days of their age. […] Palpable mammary tumors were counted every week after DMBA administration.

Row | Structure (SMILES) | Pancreatic PACA-2 ED 50 (PACA-2) | Kidney A-478 ED 50 (A-478) | Breast MCF-7 ED 50 (MCF-7) | Lung A-549 ED 50 (A-549) | Colon HT-29 ED 50 (HT-29) | Prostrate PC-3 ED 50 (PC-3) | further results
1 | OC[C@H]1O[C@@H](Oc2cc(O)cc(/C=C/c3ccc(O)cc3)c2)[C@H](O)[C@@H](O)[C@@H]1O (relative stereo) [Fifth Product, 90% Piceid, 3,4′5-trans-trihydroxystilbene-3-β-mono-D-glucoside] | 40.98 mg/L | 34.95 mg/L | 100 mg/L | 35.77 mg/L | 79.20 mg/L | 80.58 mg/L | 
2 | Oc1ccc(C=Cc2cc(O)cc(O)c2)cc1 [resveratrol, 3,4′,5-trihydroxystilbene] |  |  |  |  |  |  | Pedal edema, acute phase ([1]; acute phase (3 to 24 hours)): significantly reduced pedal edema; Pedal edema, chronic phase ([1]; chronic phase (24 to 144 hours)): significantly reduced pedal edema; Edema-suppressing activity compared with reference drugs ([1]; versus phenylbutazone and indomethacin): greater than that of phenylbutazone and similar to that of indomethacin
3 | C[S+]([O-])CCCCN=C=S (stereo not drawn) [Sulforaphane] |  |  |  |  |  |  | Rat with Tumors, percentage in parentheses (reduction versus Control Diet + DMBA, not explained) ([2]; 9 weeks after DMBA): (100%); Tumors Per Rat, percentage in parentheses (reduction versus Control Diet + DMBA, not explained) ([2]; 9 weeks after DMBA): (100%); Rat with Tumors (%) ([2]; 9 weeks after DMBA): 0%; Tumors Per Rat ([2]; 9 weeks after DMBA): 0; Rat with Tumors, percentage in parentheses (reduction versus Control Diet + DMBA, not explained) ([2]; 14 weeks after DMBA): (32%); Tumors Per Rat, percentage in parentheses (reduction versus Control Diet + DMBA, not explained) ([2]; 14 weeks after DMBA): (43%); Rat with Tumors (%) ([2]; 14 weeks after DMBA): 13%; Tumors Per Rat ([2]; 14 weeks after DMBA): 0.13 ± 0.08; Rat with Tumors, percentage in parentheses (reduction versus Control Diet + DMBA, not explained) ([2]; 22 weeks after DMBA): (38%); Tumors Per Rat, percentage in parentheses (reduction versus Control Diet + DMBA, not explained) ([2]; 22 weeks after DMBA): (10%); Rat with Tumors (%) ([2]; 22 weeks after DMBA): 31%; Tumors Per Rat ([2]; 22 weeks after DMBA): 0.36 ± 0.33
4 | Oc1ccc(/C=C/c2cc(O)cc(O)c2)cc1 [3,4′,5-trihydroxy-trans-stilbene] | 3.55 mg/L | 0.74 mg/L | 4.23 mg/L | 0.326 mg/L | 1.66 mg/L | 100 mg/L | 
5 | COc1cccc2c1C(=O)c1c(O)c3c(c(O)c1C2=O)C[C@@](O)(C(=O)CO)C[C@@H]3O[C@H]1C[C@H](N)[C@H](O)[C@H](C)O1 [Doxorubicin HCL] | 0.00522 mg/L | 0.00359 mg/L | 0.107 mg/L | 0.00316 mg/L | 0.022 mg/L | 0.0281 mg/L | 
